In patent US7547690B2, “Compounds for the treatment of Hepatitis C” (Bristol-Myers Squibb Company, priority 2007, dated 2009):

How the values were obtained:
HCV NS5B = target: T1, HCV NS5B (Hepatitis C virus genotype 1b, UniProt Q9WMX2); experiment: HCV NS5B RdRp enzyme assay (standard / modified); type: biochemical; details: HCV RdRp genotype 1b; standard or modified assay not specified; read-out: IC50
T1 construct: The protein was expressed with an 18 amino acid C-terminal truncation to enhance the solubility; made in house; host or cells: E. coli BL21(DE3)
Method: HCV NS5B RdRp cloning, expression, and purification. The cDNA encoding the NS5B protein of HCV, genotype 1b, was cloned into the pET21a expression vector. The protein was expressed with an 18 amino acid C-terminal truncation to enhance the solubility. The E. coli competent cell line BL21(DE3) was used for expression of the protein. Cultures were grown at 37° C. for ˜4 hours until the cultures reached an optical density of 2.0 at 600 nm. The cultures were cooled to 20° C. and induced with 1 mM IPTG. Fresh ampicillin was added to a final concentration of 50 μg/ml and the cells were grown overnight at 20° C.
Cell pellets (3 L) were lysed for purification to yield 15-24 mgs of purified NS5B. The lysis buffer consisted of 20 mM Tris-HCl, pH 7.4, 500 mM NaCl, 0.5% triton X-100, 1 mM DTT, 1 mM EDTA, 20% glycerol, 0.5 mg/ml lysozyme, 10 mM MgCl2, 15 ug/ml deoxyribonuclease I, and Complete TM protease inhibitor tablets (Roche). After addition of the lysis buffer, frozen cell pellets were resuspended using a tissue homogenizer. To reduce the viscosity of the sample, aliquots of the lysate were sonicated on ice using a microtip attached to a Branson sonicator. The sonicated lysate was centrifuged at 100,000×g for 1 hr at 4° C. and filtered through a 0.2 μm filter unit (Corning).
The protein was purified using two sequential chromatography steps: Heparin sepharose CL-6B and polyU sepharose 4B (Pharmacia). The chromatography buffers were identical to the lysis buffer but contained no lysozyme, deoxyribonuclease I, MgCl2 or protease inhibitor and the NaCl concentration of the buffer was adjusted according to the requirements for charging the protein onto the column. Each column was eluted with a NaCl gradient which varied in length from 5-50 column volumes depending on the column type. After the final chromatography step, the resulting purity of the enzyme is >90% based on SDS-PAGE analysis. The enzyme was aliquoted and stored at −80° C.
Standard HCV NS5B RdRp enzyme assay. HCV RdRp genotype 1b assays were run in a final volume of 60 μl in 96 well plates (Corning 3600). The assay buffer is composed of 20 mM Hepes, pH 7.5, 2.5 mM KCl, 2.5 mM MgCl2, 1 mM DTT, 1.6 U RNAse inhibitor (Promega N2515), 0.01 mg/ml BSA (Sigma B6917), and 2% glycerol. All compounds were serially diluted (3-fold) in DMSO and diluted further in water such that the final concentration of DMSO in the assay was 2%. HCV RdRp genotype 1b enzyme was used at a final concentration of 28 nM. A polyA template was used at 6 nM, and a biotinylated oligo-dT12 primer was used at 180 nM final concentration. Template was obtained commercially (Amersham 27-4110). Biotinylated primer was prepared by Sigma Genosys. 3H-UTP was used at 0.6 μCi (0.29 μM total UTP). Reactions were initiated by the addition of enzyme, incubated at 30 ° C. for 60 min, and stopped by adding 25 μl of 50 mM EDTA containing SPA beads (4 μg/μl, Amersham RPNQ 0007). Plates were read on a Packard Top Count NXT after >1 hr incubation at room temperature.
Modified HCV NS5B RdRp enzyme assay. A modified enzyme assay was performed essentially as described for the standard enzyme assay except for the following: The biotinylated oligo dT12 primer was precaptured on streptavidin-coated SPA beads by mixing primer and beads in assay buffer and incubating at room temperature for one hour. Unbound primer was removed after centrifugation. The primer-bound beads were resuspended in 20 mM Hepes buffer, pH 7.5 and used in the assay at final concentrations of 20 nM primer and 0.67 μg/μl beads. Order of addition in the assay: enzyme (1.75 nM) was added to diluted compound followed by the addition of a mixture of template (0.36 nM), 3H-UTP (0.6 μCi, 0.29 μM), and primer-bound beads, to initiate the reaction; concentrations given are final. Reactions were allowed to proceed for 4 hours at 30° C.
IC50 values for compounds were determined using seven different [I]. […]

HCV replicon cells = experiment: HCV replicon FRET / luciferase assay; type: cell-based; details: Hepatitis C virus, 50% reduction in FRET or luciferase activity in HCV replicon cells; read-out: EC50
Method: FRET Assay Preparation. The HCV FRET screening assay was performed in 96-well cell culture plates. The FRET peptide (Anaspec, Inc.) (Taliani et al., Anal. Biochem. 1996, 240, 60-67) contains a fluorescence donor, EDANS, near one end of the peptide and an acceptor, DABCYL, near the other end. The fluorescence of the peptide is quenched by […] resonance energy transfer (RET) between the donor and the acceptor, but as the NS3 protease cleaves the peptide the products are released from RET quenching and the fluorescence of the donor becomes apparent. The assay reagent was made as follows: 5× cell Luciferase cell culture lysis reagent from Promega (#E153A) diluted to 1× with dH2O, NaCl added to 150 mM final, the FRET peptide diluted to 20 μM final from a 2 mM stock.
To prepare plates, HCV replicon cells, with or without a Renilla luciferase reporter gene, were trypsinized and plated in a 96-well plate with titrated test compounds added in columns 3 through 12; columns 1 and 2 contained a control compound (HCV control inhibitor), and the bottom row contained cells with DMSO only. The plates were then placed in a CO2 incubator at 37° C.
Assays. Subsequent to addition of the test compounds described above (FRET Assay Preparation), at various times the plate was removed and Alamar blue solution (Trek Diagnostics, #00-100) was added to measure cellular toxicity. After reading in a Cytoflour 4000 instrument (PE Biosystems), plates were rinsed with PBS and then used for FRET assay by the addition of 30 ul of the FRET peptide assay reagent described above (FRET Assay Preparation) per well. The plate was then placed into the Cytoflour 4000 instrument which had been set to 340 excite/490 emission, automatic mode for up to 20 cycles and the plate read in a kinetic mode. Typically, the signal to noise using an endpoint analysis after the reads was at least three-fold. Alternatively, after Alamar blue reading, plates were rinsed with PBS, then used for luciferase assay using the Promega Dual-Glo Luciferase Assay System or the Promega EnduRen Live Cell Substrate assay.
Compound analysis was performed by quantification of the relative HCV replicon inhibition and the relative cytotoxicity values. To calculate cytoxicity values, the average Alamar Blue fluorescence signals from the control wells were set as 100% non-toxic. The individual signals in each of the compound test wells were then divided by the average control signal and multiplied by 100% to determine […]. To calculate the HCV replicon inhibition values, an average background value was obtained from the two wells containing the highest amount of HCV control inhibitor at the end of the assay period. These numbers were similar to those obtained from naïve Huh-7 cells. The background numbers were then subtracted from the average signal obtained from the control wells and this number was used as 100% activity. The individual signals in each of the compound test wells were then divided by the averaged control values after background subtraction and multiplied by 100% to determine percent activity. EC50 values were calculated as the concentration which caused a 50% reduction in FRET or luciferase activity. The two numbers generated for the compound plate, percent cytoxicity and percent activity, were used to determine compounds of interest for further analysis.

T1 sequence (Q9WMX2 2420-2992): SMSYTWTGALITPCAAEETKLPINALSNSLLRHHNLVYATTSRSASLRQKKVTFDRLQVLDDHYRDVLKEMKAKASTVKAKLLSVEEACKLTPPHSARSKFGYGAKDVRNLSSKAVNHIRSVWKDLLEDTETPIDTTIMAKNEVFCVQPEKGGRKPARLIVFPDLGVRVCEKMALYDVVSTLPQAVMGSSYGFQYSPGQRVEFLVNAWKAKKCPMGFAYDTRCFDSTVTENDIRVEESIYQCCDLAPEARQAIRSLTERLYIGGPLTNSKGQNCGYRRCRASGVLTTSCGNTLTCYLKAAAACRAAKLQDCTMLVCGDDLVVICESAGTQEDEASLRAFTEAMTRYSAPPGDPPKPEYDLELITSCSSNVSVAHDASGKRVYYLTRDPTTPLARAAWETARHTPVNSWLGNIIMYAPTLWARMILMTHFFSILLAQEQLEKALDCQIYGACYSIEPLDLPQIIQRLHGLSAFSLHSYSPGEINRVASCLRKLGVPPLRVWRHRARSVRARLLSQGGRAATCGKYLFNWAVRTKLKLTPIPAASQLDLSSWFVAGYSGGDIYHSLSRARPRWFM

| SMILES | IC50 (HCV NS5B) [nM] | EC50 (HCV replicon cells) [nM] |
| --- | --- | --- |
| COc1ccc2c(c1)C1CC1(C(=O)N1C[C@]3(C)CN(C)C[C@](C)(C1)C3O)Cn1c-2c(C2CCCCC2)c2ccc(C(=O)NS(=O)(=O)N(C)C)cc21 (stereo partly drawn) | 2.4 to 500 | 2.4 to 500 |
| COc1ccc2c(c1)C1CC1(C(=O)N1[C@@H]3C[C@H]1CN(Cc1ccccc1)C3)Cn1c-2c(C2CCCCC2)c2ccc(C(=O)NS(=O)(=O)N(C)C)cc21 (stereo partly drawn) | 2.4 to 500 | 2.4 to 500 |
| COc1ccc2c(c1)C1CC1(C(=O)N1C3CN(C)CC1CN(Cc1ccccc1)C3)Cn1c-2c(C2CCCCC2)c2ccc(C(=O)NS(=O)(=O)N(C)C)cc21 (stereo not drawn) | 2.4 to 500 | 2.4 to 500 |
| COc1ccc2c(c1)[C@@H]1C[C@]1(C(=O)N1C3CC1CN(C)C3)Cn1c-2c(C2CCCCC2)c2ccc(C(=O)NS(=O)(=O)C(C)C)cc21 | 2.4 to 500 | 2.4 to 500 |
| CCN1CC2CC(C1)N2C(=O)[C@]12C[C@H]1c1cc(OC)ccc1-c1c(C3CCCCC3)c3ccc(C(=O)NS(=O)(=O)N(C)C)cc3n1C2 | 2.4 to 500 | 2.4 to 500 |
| CCCS(=O)(=O)NC(=O)c1ccc2c(C3CCCCC3)c3n(c2c1)CC1(C(=O)N2C4CC2CN(C)C4)CC1c1cc(OC)ccc1-3 (stereo not drawn) | 2.4 to 500 | 2.4 to 500 |
| CCN1CC2CC(C1)N2C(=O)C12CC1c1cc(OC)ccc1-c1c(C3CCCCC3)c3ccc(C(=O)NS(=O)(=O)C(C)C)cc3n1C2 (stereo not drawn) | 2.4 to 500 | 2.4 to 500 |
| COc1ccc2c(c1)C1CC1(C(=O)N1C3CN(C)CC1CN(C(C)=O)C3)Cn1c-2c(C2CCCCC2)c2ccc(C(=O)NS(=O)(=O)N(C)C)cc21 (stereo not drawn) | 2.4 to 500 | 2.4 to 500 |
| COc1ccc2c(c1)C1CC1(C(=O)N1C3CN(C)CC1CN(C)C3)Cn1c-2c(C2CCCCC2)c2ccc(C(=O)NS(=O)(=O)N(C)C)cc21 (stereo not drawn) | 2.4 to 500 | 2.4 to 500 |
| COc1ccc2c(c1)C1CC1(C(=O)N1C3CN(C)CC1CN(C(C)C)C3)Cn1c-2c(C2CCCCC2)c2ccc(C(=O)NS(=O)(=O)N(C)C)cc21 (stereo not drawn) | 2.4 to 500 | 2.4 to 500 |
| CCC(C)S(=O)(=O)NC(=O)c1ccc2c(C3CCCCC3)c3n(c2c1)CC1(C(=O)N2C4COCC2COC4)CC1c1cc(OC)ccc1-3 (stereo not drawn) | 2.4 to 500 | 2.4 to 500 |
| COc1ccc2c(c1)C1CC1(C(=O)N1C3CC1CN(C)C3)Cn1c-2c(C2CCCCC2)c2ccc(C(=O)NS(=O)(=O)CC(C)C)cc21 (stereo not drawn) | 2.4 to 500 | 2.4 to 500 |
| COc1ccc2c(c1)C1CC1(C(=O)N1C3CC1CN(C)C3)Cn1c-2c(C2CCCCC2)c2ccc(C(=O)NS(=O)(=O)C3CCC3)cc21 (stereo not drawn) | 2.4 to 500 | 2.4 to 500 |
| COc1ccc2c(c1)C1CC1(C(=O)N1C3CC1CN(C)C3)Cn1c-2c(C2CCCCC2)c2ccc(C(=O)NS(=O)(=O)C3CCCC3)cc21 (stereo not drawn) | 2.4 to 500 | 2.4 to 500 |
| COc1ccc2c(c1)C1CC1(C(=O)N1C3CC1CN(C)C3)Cn1c-2c(C2CCCCC2)c2ccc(C(=O)NS(=O)(=O)CC(C)(C)C)cc21 (stereo not drawn) | 2.4 to 500 | 2.4 to 500 |
| COc1ccc2c(c1)C1CC1(C(=O)N1C3CC1CN(C)C3)Cn1c-2c(C2CCCCC2)c2ccc(C(=O)NS(=O)(=O)C(C)(C)C)cc21 (stereo not drawn) | 2.4 to 500 | 2.4 to 500 |
| CCC(C)S(=O)(=O)NC(=O)c1ccc2c(C3CCCCC3)c3n(c2c1)CC1(C(=O)N2C4CN(C)CC2CN(Cc2ccccc2)C4)CC1c1cc(OC)ccc1-3 (stereo not drawn) | 2.4 to 500 | 2.4 to 500 |
| CCC(C)S(=O)(=O)NC(=O)c1ccc2c(C3CCCCC3)c3n(c2c1)CC1(C(=O)N2C4CC2CN(Cc2ccccc2)C4)CC1c1cc(OC)ccc1-3 (stereo not drawn) | 2.4 to 500 | 2.4 to 500 |
| COc1ccc2c(c1)C1CC1(C(=O)N1C3CC1CN(Cc1ccccc1)C3)Cn1c-2c(C2CCCCC2)c2ccc(C(=O)NS(=O)(=O)CC(C)C)cc21 (stereo not drawn) | 2.4 to 500 | 2.4 to 500 |
| COc1ccc2c(c1)C1CC1(C(=O)N1C3CC1CN(Cc1ccccc1)C3)Cn1c-2c(C2CCCCC2)c2ccc(C(=O)NS(=O)(=O)C3CCCC3)cc21 (stereo not drawn) | 2.4 to 500 | 2.4 to 500 |
| COc1ccc2c(c1)C1CC1(C(=O)N1C3CC1CN(Cc1ccccc1)C3)Cn1c-2c(C2CCCCC2)c2ccc(C(=O)NS(=O)(=O)C3CCCCC3)cc21 (stereo not drawn) | 2.4 to 500 | 500 to 5000 |
